Assays:
[1] = molecular target: T1, Lysine-specific histone demethylase 1A (Homo sapiens, UniProt O60341); experiment: Inhibition of LSD1 (unknown origin) by Spectra Max Paradigm Microplate Reader analysis
MDA-MB-231 = experiment: Antiproliferative activity against human MDA-MB-231 cells assessed as reduction in cell viability after 24 hrs by MTT assay; format: functional, cell-based; conditions: MDA-MB-231, 24 h
[2] = molecular target: T1, Lysine-specific histone demethylase 1A; experiment: Inhibition of recombinant LSD1 (unknown origin) expressed in Escherichia coli BL21 using H3K4me2 as substrate preincubated for 10 mins followed by substrate addition and measured after 30 mins by fluorescence based analysis
[3] = Cytotoxicity against human GES1 cells assessed as cell viability measured after 72 hrs by MTT assay; format: toxicity, cell-based
MGC-803 = experiment: Antiproliferative activity against human MGC-803 cells assessed as reduction in cell viability after 72 hrs by MTT assay; format: functional, cell-based; conditions: MGC-803, 72 h
[4] = molecular target: T1, Lysine-specific histone demethylase 1A; experiment: Inhibition of recombinant LSD1 (unknown origin) using H3K4me2 as a substrate measured after 0.5 hrs by fluorescence based analysis
BGC-823 = experiment: Antiproliferative activity against human BGC-823 cells assessed as reduction in cell viability incubated for 5 days by MTS assay; format: functional, cell-based; conditions: BGC-823, 120 h

| Compound | IC50 [1] | IC50 [2] | other results |
| --- | --- | --- | --- |
| O=C(/C=C/c1ccc(O)c2c1[C@H](C(=O)O[C@H](Cc1ccc(O)c(O)c1)C(=O)O)[C@@H](c1ccc(O)c(O)c1)O2)O[C@H](Cc1ccc(O)c(O)c1)C(=O)O | 0.11 µM |  | IC50 (MDA-MB-231): 55 µM |
| COc1ccc2cc3[n+](cc2c1OC)CCc1cc2c(cc1-3)OCO2 [BERBERINE] |  | 6.97 µM |  |
| COc1ccc(-c2coc3cc(O)cc(O)c3c2=O)cc1 [BIOCHANIN] |  |  | IC50 at 72 h [3]: > 32 µM; IC50 (MGC-803): 6.77 µM; IC50 [4]: 2.95 µM |
| COc1cc(CNC(=O)CCCC/C=C/C(C)C)ccc1O [CAPSAICIN] |  |  | IC50 (BGC-823): 4.66 µM |
| COc1cc2c(cc1O)-c1cc3ccc(OC)c(OC)c3c[n+]1CC2 [COLUMBAMINE] |  | 0.47 µM |  |
| C[C@H]1COC2=C1C(=O)C(=O)c1c2ccc2c1CCCC2(C)C [CRYPTOTANSHINONE] | 9.02 µM |  |  |
| Cc1cccc2c3c(ccc12)C1=C(C(=O)C3=O)[C@@H](C)CO1 [DIHYDROTANSHINONE I] | 15.8 µM |  |  |
| COc1cc2c(cc1O)CC[n+]1cc3c(OC)c(OC)ccc3cc1-2 [JATRORRHIZINE] |  | 1.55 µM |  |
| COc1cc2c(cc1OC)-c1cc3ccc(OC)c(OC)c3c[n+]1CC2 [PALMITINE] |  | 12.2 µM |  |
| O=C(/C=C/c1ccc(O)c(O)c1)O[C@H](Cc1ccc(O)c(O)c1)C(=O)O [ROSMARINIC ACID] | 20.9 µM |  |  |
| Cc1coc2c1C(=O)C(=O)c1c-2ccc2c(C)cccc12 [TANSHINONE I] | 16.4 µM |  |  |

Reference: ChEMBL document CHEMBL5096159, “Annual review of LSD1/KDM1A inhibitors in 2020” (Eur J Med Chem, 2021)
